T1: CTGF (Homo sapiens, UniProt P29279)
T1 sequence (P29279 27-349): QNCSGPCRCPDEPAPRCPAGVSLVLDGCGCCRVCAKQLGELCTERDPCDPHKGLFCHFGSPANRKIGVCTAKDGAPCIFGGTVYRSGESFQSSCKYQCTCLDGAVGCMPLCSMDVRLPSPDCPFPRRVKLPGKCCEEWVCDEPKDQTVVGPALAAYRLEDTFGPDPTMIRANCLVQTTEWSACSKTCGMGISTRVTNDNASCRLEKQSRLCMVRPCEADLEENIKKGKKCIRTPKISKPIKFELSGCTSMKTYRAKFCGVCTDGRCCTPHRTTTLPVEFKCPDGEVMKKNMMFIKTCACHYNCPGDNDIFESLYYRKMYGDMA

T2: CTGF and betaglycan (Homo sapiens, UniProt P29279)
T2 sequence (P29279 27-349): T1 sequence (P29279 27-349)

T3: recombinant human CTGF (rhCTGF) (Homo sapiens, UniProt P29279)
T3 construct: in the presence of no CTGF, full-length CTGF, the N-terminal half of CTGF (NH2 fragment); made in house; host or cells: Hi5 insect cells infected with baculovirus (pFASTBAC1; virus generated in Sf9)
T3 sequence (P29279 27-349): T1 sequence (P29279 27-349)

B1: sBetaglycan: soluble betaglycan (TGF-β type III receptor), a heparan sulfate proteoglycan (protein, UniProt Q03167 21-787, looked up)
extracellular domain: GPEPGALCELSPVSASHPVQALMESFTVLSGCASRGTTGLPQEVHVLNLRTAGQGPGQLQREVTLHLNPISSVHIHHKSVVFLLNSPHPLVWHLKTERLATGVSRLFLVSEGSVVQFSSANFSLTAETEERNFPHGNEHLLNWARKEYGAVTSFTELKIARNIYIKVGEDQVFPPKCNIGKNFLSLNYLAEYLQPKAAEGCVMSSQPQNEEVHIIELITPNSNPYSAFQVDITIDIRPSQEDLEVVKNLILILKCKKSVNWVIKSFDVKGSLKIIAPNSIGFGKESERSMTMTKSIRDDIPSTQGNLVKWALDNGYSPITSYTMAPVANRFHLRLENNAEEMGDEEVHTIPPELRILLDPGALPALQNPPIRGGEGQNGGLPFPFPDISRRVWNEEGEDGLPRPKDPVIPSIQLFPGLREPEEVQGSVDIALSVKCDNEKMIVAVEKDSFQASGYSGMDVTLLDPTCKAKMNGTHFVLESPLNGCGTRPRWSALDGVVYYNSIVIQVPALGDSSGWPDGYEDLESGDNGFPGDMDEGDASLFTRPEIVVFNCSLQQVRNPSSFQEQPHGNITFNMELYNTDLFLVPSQGVFSVPENGHVYVEVSVTKAEQELGFAIQTCFISPYSNPDRMSHYTIIENICPKDESVKFYSPKRVHFPIPQADMDKKRFSFVFKPVFNTSLLFLQCELTLCTKMEKHPQKLPKCVPPDEACTSLDASIIWAMMQNKKTFTKPLAVIHHEAESKEKGPSMKEPNPISPPIFHGLDTLTV
modifications: extracellular domain
notes: soluble betaglycan (TGF-β type III receptor), a heparan sulfate proteoglycan

What was measured:
CTGF [1] = target: T1, CTGF; assay: Co-immunoprecipitation assay, interaction with CTGF; assay type: binding; conditions: FIG. 8A, FIG. 9
Procedure: (§1) Co-immunoprecipitation is a purification procedure used to determine if two different molecules, e.g., proteins, directly interact. Basically, an antibody specific to a protein of interest is added to a cell lysis under conditions suitable for antibody binding to the protein. The antibody-protein complex is then collected, e.g., using protein-G sepharose, which binds most antibodies. Any molecules that are bound to the precipitated protein will also be collected. Identification of proteins can be determined by, e.g., western blot or by direct sequencing of the purified protein(s). Several commercial kits, e.g., the PROFOUND co-immunoprecipitation kit from Pierce Biotechnology, Inc. (Rockford Ill.) are also available.
(§2) In the present examples, co-immunoprecipitations were performed as follows. The surface of intact cells was iodinated with ^125I prior to lysing cells and fractionating on a CTGF affinity column. Alternatively, CTGF and labeled cells were incubated for a period sufficient for CTGF binding to cells, and then cells were lysed and immunoprecipitations were performed using anti-CTGF specific antibodies. Antibody complexes were collected from the lysate using protein-G sepharose, and pelleted by centrifugation. Proteins eluted from affinity columns or collected by immunoprecipitation were analyzed by fractionation on SDS-PAGE and visualized by autoradiography. […]

CTGF and betaglycan = target: T2, CTGF and betaglycan; assay: Co-immunoprecipitation assay, binding between CTGF and betaglycan; conditions: soluble betaglycan, bFGF and CTGF mixed; dose-sensitive; FIG. 9
Procedure: as §1, §2

[2] = target: T3, recombinant human CTGF (rhCTGF); assay: Cell adhesion assay (CTGF-mediated cell adhesion); assay type: cell-based; conditions: HFF cells; increasing concentrations added to the adhesion reaction; FIGS. 3C, 6A, 7A
Procedure: Methods for measuring cell adhesion mediated by CTGF are generally known to those skilled in the art. (See, e.g., Babic et al. (1999) Mol Cell Biol 19:2958-296; Ball et al. (2003) J Endocrinol 176:R1-7.) In some experiments, wells of a MAXISORP plate (Nunc Nalgene) were treated with 10 μg/ml recombinant human CTGF (rhCTGF) to directly adsorb CTGF to the well. Alternatively, wells were coated with a human monoclonal antibody specific for human CTGF, and then were blocked with bovine serum albumin to prevent non-specific binding. 2 μg/1 ml rhCTGF or fragments thereof, or a vehicle control was added to each well. Plates were then washed 3 times with PBS, cells were added at a seed density of approximately 8×10^3 cells/well, and plates were incubated for 45 minutes at 37° C. Wells were then washed twice, and the number of cells retained in each well was measured using a CYQUANT cell proliferation assay kit (Molecular Probes, Inc., Eugene Oreg.). Alternatively, attached cells were lysed in 2% Triton and lactate dehydrogenase (LDH) activity was measured using a cytotoxicity detection (LDH) kit (Roche Diagnostics Corp., Chicago, Ill.). LDH levels were compared against a standard curve generated using known numbers of cells, and results of experiment were expressed as numbers of attached cells per well.
CTGF has been described as a heparin-binding growth factor. As cells may carry a variety of proteoglycan moieties on their surface, e.g., heparan sulfate, chondroitin sulfate, etc. (see FIG. 3A), the following experiment was conducted to determine the specificity of CTGF for such moieties. The cell adhesion and cell binding assays were conducted as described in Examples 3.1 and 3.2, respectively, except prior to seeding cells were treated for 1 hour at 37° C. with either vehicle, 4 units/ml heparinase I, or 2 units/ml chondroitinase ABC.
To further examine the requirement for heparan sulfate proteoglycans in CTGF-mediated cell adhesion, adhesion was measured in the presence of increasing amounts of heparin. […]

CTGF [3] = target: T1, CTGF; assay: CTGF displacement assay (endogenous CTGF displaced from cells, sandwich ELISA); assay type: cell-based; parameters: measured displacement of CTGF endogenously produced by cells; endogenous in cells; host or cells: HLF and MG63 cells (constitutive or TGF-β2-induced expression); conditions: HLF or MG63 cells; titrated amounts of sulfated polysaccharides; FIGS. 6B, 7B
Procedure: Alternatively, cell binding was measured using a CTGF displacement assay. The displacement assay used in the present examples measured displacement of CTGF endogenously produced by cells. HLF and MG63 cells were separately used in the displacement assay as follows. In all experiments, cells were plated in 96-well tissue culture plates at a seed density of 2.5×10^4 cells/well. Cells were incubated for approximately 24 hours at 37° C., and then medium was replaced with a serum-free medium containing titrated amounts of sulfated polysaccharides (glycosaminoglycans, GAGs). In some experiments, constitutive CTGF expression accounted for the displaced CTGF, whereas in other experiments additional levels of CTGF were induced by addition of TGF-β2 in culture media 30 minutes prior to change of media and addition of GAGs. MG63 cells were incubated for either 3 or 6 hrs, and HLF cells were incubated for 20 hrs, at 37° C., and then conditioned media was assayed for N-fragment and full-length CTGF using a sandwich ELISA assay. (See International Publication No. WO 03/024308.)
To determine size requirements for modulation of CTGF-mediated cell adhesion and cell binding, heparin moieties containing differing saccharide subunit number were examined. Polysaccharide lengths tested ranged from 10 to approximately 50 saccharides, and experiments were carried out as described in examples 3.1 and 3.3. […]

CTGF [4] = target: T1, CTGF; assay: CTGF binding assay (binding of CTGF to cells, FACS); assay type: cell-based; conditions: increasing concentrations of heparin or modified heparin, FIG. 4
Procedure: Methods for measuring binding of CTGF to cells are generally known to those skilled in the art. (See, e.g., Nishida (1998) Biochem Biophys Res Commun 247:905-909; Segarini et al. (2001) J Biol Chem 276:40659-40667.) In one method used herein, cells were suspended in media containing CTGF under conditions suitable for binding of CTGF to cellular targets, e.g., incubation at 4° C. Cells may optionally be treated prior to or concurrently with CTGF exposure; for example, cells may be treated with enzymes that alter cell surface moieties, molecules that compete competitively or non-competitively with CTGF for binding to cells, etc. Following incubation, cells were washed and then incubated with fluorescently-labeled anti-CTGF antibody. The level of CTGF binding was then measured using a FACS apparatus.
To determine the specificity of sulfation and charge distribution for CTGF-mediated cell adhesion and cell binding, experiments as described in Examples 3.1, 3.2, and 3.3, were performed with the following modification. Combination of HFF cells with CTGF was accompanied by addition of increasing concentrations of heparin that was modified to contain differing amounts of sulfation and/or acetylation.

| Molecule | interaction with CTGF (co-immunoprecipitation with anti-CTGF antibodies) (CTGF [1]) | binding between CTGF and betaglycan in the presence of the factor (CTGF and betaglycan) | CTGF-mediated (CTGF-dependent) cell adhesion, effect of added polysaccharide [2] | binding of CTGF to cells (displacement assay) (CTGF [3]) | binding of CTGF to HFF, inhibition (CTGF [4]) |
| --- | --- | --- | --- | --- | --- |
| bFGF: basic fibroblast growth factor | clear interaction | adversely influenced |  |  |  |
| chondroitin sulfate [naturally sulfated chondroitin] |  |  | no modulation | no modulation |  |
| dermatan sulfate [naturally sulfated dermatan] |  |  | no modulation | no modulation |  |
| heparin |  |  | inhibited |  | substantially inhibit |
| B1 | dose-sensitive interaction |  |  |  |  |
